Data taken from US9434735B2, “Amorphous form of 4-((4-(cyclopentyloxy)-5-(2-methylbenzo[d]oxazol-6-yl)-7h-pyrrolo[2,3-d]pyrimidin-2-yl)amino)-3-methoxy-n-methylbenzamide, compositions thereof and methods of their use” (Signal Pharmaceuticals, LLC, priority 2014, dated 2016).

What was measured:
Assay type in all cases: physicochemical
[1] = Solubility of spray-dried amorphous form in ethanol; settings: amorphous form obtained by spray-drying
Method: An amorphous form of Compound 1 was obtained from a spray-drying process of Compound 1 as depicted in FIG. 5. The spray-drying process comprised: (1) mixing Compound 1 with methanol at 25° C. to yield a suspension; (2) heating to 121° C.; (3) spray-drying under the conditions in Table 1 or Table 2 to yield an amorphous solid form; and (4) collecting the resulting solids. Alternatively, the spray drying process comprised: (1) mixing Compound 1 with acetone to yield a solution; (2) spray-drying under the conditions in Table 3 to yield an amorphous solid form; and (3) collecting the resulting solids.

[2] = Stability study of the amorphous form (HPLC purity, XRPD); settings: over three months; HPLC purity (FIG. 6), XRPD (FIG. 7)
Method: FIG. 6 depicts a stability study of the amorphous form based on its HPLC purity over 3 months. FIG. 7 depicts a stability study of the amorphous form based on its XRPD over 3 months. Solid samples were analyzed by XRPD. XRPD analysis was conducted on a PANalytical Empyrean or a Thermo ARL X'TRA X-ray powder diffractometer using Cu Kα radiation at 1.54 Å.

[3] = Dissolution of amorphous form in reconstitution formulations

Solubility in ethanol [1]: readily soluble
Stability (HPLC purity and XRPD) [2]: chemically and physically stable
Dissolution Time ([3]; 17 mg amorphous Compound 1, 0.105 g EtOH, 0.656 g PEG-300, 0.239 g Saline): 1 min
Dissolution Time ([3]; #1 4.6 mL EtOH added to 700 mg amorphous Compound 1, #2 26.3 mL (25.1:1.2) PEG-300:Ethanol, #3 10.3 mL Saline): 1 min
Dissolution Time ([3]; #1 PEG-300/EtOH, #2 Saline): 9 min
Compound: CNC(=O)c1ccc(Nc2nc(OC3CCCC3)c3c(-c4ccc5nc(C)oc5c4)c[nH]c3n2)c(OC)c1 [amorphous Compound 1, 4-((4-(cyclopentyloxy)-5-(2-methylbenzo[d]oxazol-6-yl)-7H-pyrrolo[2,3-d]pyrimidin-2-yl)amino)-3-methoxy-N-methylbenzamide]
